Like-named read-outs stand apart in the source and are kept apart here.
Tests used:
[1] = test system: rgRSV224 virus; assay: microbe, parasite or virus in culture; type: cell-based, respiratory syncytial virus (RSV); settings: read-out: WT activity EC50
Method: Black 96-well clear-bottom microtiter plates (Corning, Amsterdam, The Netherlands) were filled in duplicate using a customized robot system with serial 4-fold dilutions of compound in a final volume of 50 μl culture medium [RPMI medium without phenol red, 10% FBS, 0.04% gentamycin (50 mg/mL) and 0.5% DMSO]. Then, 100 μl of a HeLa cell suspension (5×10^4 cells/mL) in culture medium was added to each well followed by the addition of 50 μl rgRSV224 (MOI=0.02) virus in culture medium using a multidrop dispenser (Thermo Scientific, Erembodegem, Belgium). rgRSV224 virus is an engineered virus that includes an additional GFP gene (Hallak et al, 2000) and was in-licensed from the NIH (Bethesda, Md., USA). Medium, virus- and mock-infected controls were included in each test. Cells were incubated at 37° C. in a 5% CO2 atmosphere. Three days post-virus exposure, viral replication was quantified by measuring GFP expression in the cells by a MSM laser microscope (Tibotec, Beerse, Belgium). […] In parallel, compounds were incubated for three days in a set of white 96-well microtitier plates (Corning) and the cytotoxicity of compounds in HeLa cells was determined by measuring the ATP content of the cells using the ATPlite kit (PerkinElmer, Zaventem, Belgium) according to the manufacturer's instructions.

[2] = Cytotoxicity in HeLa cells by ATP content (ATPlite kit); type: cell-based; settings: human; Table 1; HeLa cells, three days, ATP content; read-out: Tox CC50
Method: (§1) Black 96-well clear-bottom microtiter plates (Corning, Amsterdam, The Netherlands) were filled in duplicate using a customized robot system with serial 4-fold dilutions of compound in a final volume of 50 μl culture medium [RPMI medium without phenol red, 10% FBS, 0.04% gentamycin (50 mg/mL) and 0.5% DMSO]. Then, 100 μl of a HeLa cell suspension (5×10^4 cells/mL) in culture medium was added to each well followed by the addition of 50 μl rgRSV224 (MOI=0.02) virus in culture medium using a multidrop dispenser (Thermo Scientific, Erembodegem, Belgium). rgRSV224 virus is an engineered virus that includes an additional GFP gene (Hallak et al, 2000) and was in-licensed from the NIH (Bethesda, Md., USA). Medium, virus- and mock-infected controls were included in each test. Cells were incubated at 37° C. in a 5% CO2 atmosphere. Three days post-virus exposure, viral replication was quantified by measuring GFP expression in the cells by a MSM laser microscope (Tibotec, Beerse, Belgium). The EC50 was defined as the 50% inhibitory concentration for GFP expression. In parallel, compounds were incubated for three days in a set of white 96-well microtitier plates (Corning) and the cytotoxicity of compounds in HeLa cells was determined by measuring the ATP content of the cells using the ATPlite kit (PerkinElmer, Zaventem, Belgium) according to the manufacturer's instructions. The CC50 was defined as the 50% concentration for cytotoxicity.

[3] = test system: HeLa cells; assay: as above; type: cell-based
Method: as §1

[4] = Table 1, rgRSV224 in HeLa cells, GFP expression three days post-virus exposure
[5] = Table 1, HeLa cells, three days, ATP content, read-out: Tox CC50

| SMILES | EC50 ([1]; human respiratory syncytial virus, HeLa, 72 h) | CC50 at 3 days [2] | EC50 [1, 4] | CC50 [3] | CC50 [3, 5] |
| --- | --- | --- | --- | --- | --- |
| CS(=O)(=O)CCCn1c(Cn2c(=O)n(C3CC3)c3ccncc32)nc2cc(Br)ccc21 [P2, 3-({5-Bromo-1-[3-(methylsulfonyl)propyl]-1H-benzimidazol-2-yl}methyl)-1-cyclopropyl-1,3-dihydro-2H-imidazo[4,5-c]pyridin-2-one] | 0.034 nM | > 9840 nM |  |  |  |
| CS(=O)(=O)CCCn1c(Cn2c(=O)n(C3CC3)c3ccccc32)nc2cc(Br)ccc21 [P7] |  |  | < 0.15 nM | > 9840 nM |  |
| O=c1n(Cc2nc3cc(Br)ccc3n2CCCCCl)c2cnccc2n1C1CC1 [P8] |  |  | < 0.205 nM |  | > 9840 nM |
| CS(=O)(=O)NCCCn1c(Cn2c(=O)n(C3CC3)c3ccncc32)nc2cc(Br)ccc21 [P9] |  |  | 0.21 nM | > 101000 nM |  |
| CS(=O)(=O)CCCn1c(Cn2c(=O)n(C3CC3)c3ccc(F)cc32)nc2cc(Cl)ccc21 [P10] |  |  | 0.23 nM | > 9840 nM |  |
| O=c1n(Cc2nc3cc(Cl)ccc3n2CCCCO)c2cc(F)ccc2n1C1CC1 [P11] |  |  | 0.253 nM | > 9840 nM |  |
| O=c1n(Cc2nc3cc(Cl)ccc3n2CCCCO)c2ccccc2n1C1CC1 [P12] |  |  | 0.307 nM | > 9840 nM |  |
| O=c1n(Cc2nc3cc(Cl)ccc3n2CCCCO)c2cnccc2n1C1CC1 [P13] |  |  | 0.454 nM | > 9840 nM |  |
| O=c1n(Cc2nc3cc(Br)ccc3n2CCCCO)c2cnccc2n1C1CC1 [P14] |  |  | 0.523 nM | > 98400 nM |  |
| CC(C)CCn1c(Cn2c(=O)n(C3CC3)c3ccncc32)nc2cc(Cl)ccc21 [P15] |  |  | < 0.62 nM | > 98400 nM |  |
| O=c1n(Cc2nc3cc(Br)ccc3n2CCCCO)c2cc(F)ccc2n1C1CC1 [P16] |  |  | 0.744 nM | > 9840 nM |  |
| CC(C)CCn1c(Cn2c(=O)n(C3CC3)c3ccncc32)nc2cc(Br)ccc21 [P17] |  |  | 0.808 nM | > 49200 nM |  |
| CC(=O)OCCCCn1c(Cn2c(=O)n(C3CC3)c3ccncc32)nc2cc(Br)ccc21 [P18] |  |  | 1.07 nM |  | > 101000 nM |
| CC(C)(C)C(=O)OCCCCn1c(Cn2c(=O)n(C3CC3)c3ccccc32)nc2cc(Cl)ccc21 [P19] |  |  | 2.59 nM | > 9840 nM |  |
| CC(C)(C)C(=O)OCCCCn1c(Cn2c(=O)n(C3CC3)c3ccc(F)cc32)nc2cc(Cl)ccc21 [P20] |  |  | 4.09 nM | > 9840 nM |  |
| CN(C)CCCn1c(Cn2c(=O)n(C3CC3)c3ccncc32)nc2cc(Br)ccc21 [P21] |  |  | 4.12 nM | > 98400 nM |  |
| CC(=O)OCCCCn1c(Cn2c(=O)n(C3CC3)c3ccc(F)cc32)nc2cc(Br)ccc21 [P22] |  |  | < 0.81 nM |  | > 9840 nM |
| O=c1n(Cc2nc3cc(Br)ccc3n2CCCCF)c2cc(F)ccc2n1C1CC1 [P23] |  |  | < 1.6 nM |  | > 9840 nM |
| CS(=O)(=O)CCCn1c(Cn2c(=O)n(C3CC3)c3ccccc32)nc2cc(Cl)ccc21 [P24] |  |  | < 0.15 nM | > 9840 nM |  |
| O=c1n(Cc2nc3cc(Cl)ccc3n2CCCCF)c2ccccc2n1C1CC1 [P25] |  |  | < 0.15 nM |  | > 9840 nM |
| N#CCCCn1c(Cn2c(=O)n(C3CC3)c3ccncc32)nc2cc(Cl)ccc21 [P26] |  |  | < 0.15 nM |  | > 9840 nM |
| N#CCCCn1c(Cn2c(=O)n(C3CC3)c3ccncc32)nc2cc(Br)ccc21 [P27] |  |  | < 0.15 nM |  | > 9840 nM |

From US8865705B2, “Benzimidazole respiratory syncytial virus inhibitors” (Janssen R&D Ireland, priority 2010, dated 2014)
